Reference: US10160785B2, “Antimicrobial peptides and their use for the treatment of topical infections” (priority 2015, dated 2018)
Where a SMILES comes first, the peptide text is derived from it.

Test system: Candida albicans (Olomouc) biofilm
Assay: C. albicans biofilm, remaining metabolic activity (XTT)
Assay type: cell-based
How it was run: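 Candida albicans (Olomouc) biofilms grown 48 h at 37 °C in MOPS-buffered RPMI 1640 from 1×10^6 CFU inocula, then exposed 20 h to peptide at 0.39-200 μmol.l^−1. XTT/PMS staining for 90 min, A540; remaining metabolic activity expressed as percent of untreated biofilm after blank correction.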

CCCC[C@H](NC(=O)[C@H](CC(C)C)NC(=O)[C@H](CO)NC(=O)[C@H](CO)NC(=O)[C@H](CCCC)NC(=O)[C@@H](NC(=O)CN)[C@@H](C)CC)C(=O)N[C@@H](CCCCN)C(=O)N[C@@H](CCCCN)C(=O)N[C@@H](CC(C)C)C(=O)N[C@@H](CCCCN)C(=O)N[C@@H](CCCCN)C(=O)N[C@H](C(=O)N[C@H](C(=O)N[C@@H](C)C(=O)N[C@@H](CCCCN)C(N)=O)[C@@H](C)CC)[C@@H](C)CC [V] (HELM PEPTIDE1{G.I.[Nle].S.S.L.[Nle].K.K.L.K.K.I.I.A.K.[am]}$$$$V2.0)
Metabolic activity of C. albicans (%) (peptide concentration 6.25 μmol · l^−1, 20 hours): 106.4%
Metabolic activity of C. albicans (%) (peptide concentration 12.5 μmol · l^−1, 20 hours): 89.5%
Metabolic activity of C. albicans (%) (peptide concentration 25 μmol · l^−1, 20 hours): 45.0%
Metabolic activity of C. albicans (%) (peptide concentration 50 μmol · l^−1, 20 hours): 6.9%
Metabolic activity of C. albicans (%) (peptide concentration 100 μmol · l^−1, 20 hours): 2.4%
Metabolic activity of C. albicans (%) (peptide concentration 200 μmol · l^−1, 20 hours): 0.4%
